Laboratory results published in the PolyMetriX glass transition set.

Question: Which glass transition temperature does the source give for `*c1ccc2oc(-c3ccc(-c4nc5cc(C(*)(c6ccccc6)C(F)(F)F)ccc5o4)cc3)nc2c1` (repeat unit) here?
Answer: The glass transition temperature was 369.00 °C.

Question: With `*c1cccc(Oc2ccc(S(=O)(=O)c3ccc(Oc4cccc(-n5c(=O)c6cc7c(=O)n(*)c(=O)c7cc6c5=O)c4)cc3)cc2)c1` (repeat unit) as the molecule, how does the glass transition temperature read?
Answer: The glass transition temperature was 223.2 °C.

Question: With `*Oc1ccc(Oc2ccc(C(=O)c3ccccc3)c(-c3cc(*)ccc3C(=O)c3ccccc3)c2)cc1` (repeat unit) as the molecule, how does the glass transition temperature read?
Answer: Its glass transition temperature is 156.00 °C.

Question: With `*OP(=O)(Oc1ccccc1)Oc1ccc(S(=O)(=O)c2ccc(*)cc2)cc1` (repeat unit) as the molecule, how does the glass transition temperature read?
Answer: Its glass transition temperature is 100.50 °C.

Question: With `*CCC1C(=O)N(CCCCNC(=O)C(F)(F)C(F)(F)C(F)(F)C(F)(F)C(F)(F)C(F)(F)C(F)(F)F)C(=O)C1*` (repeat unit) as the molecule, how does the glass transition temperature read?
Answer: Its glass transition temperature is 100.00 °C.

Question: With `*CCCCCCNC(=O)NCc1ccc(CNC(=O)N*)cc1` (repeat unit) as the molecule, how does the glass transition temperature read?
Answer: Its glass transition temperature is 72.00 °C.

Question: With `*COC(=O)OCC1OC(OCC)(OCC)OC1*` (repeat unit) as the molecule, how does the glass transition temperature read?
Answer: Its glass transition temperature is 10.80 °C.

Question: With `*CC(*)C(=O)Oc1ccc(C(=O)OCc2ccccc2)cc1` (repeat unit) as the molecule, how does the glass transition temperature read?
Answer: Its glass transition temperature is 16.2 °C.

Question: With `*Oc1ccc(C(C)(CC)c2ccc(OC(*)=O)c(Cl)c2)cc1Cl` (repeat unit) as the molecule, how does the glass transition temperature read?
Answer: Its glass transition temperature is 142.00 °C.

Question: With `*CCOCCOC(=O)CCC(=O)O*` (repeat unit) as the molecule, how does the glass transition temperature read?
Answer: The glass transition temperature was -38.20 °C.

Question: For `*C(=O)c1ccc(N(*)CCCCCCC)cc1` (repeat unit), which glass transition temperature is on record?
Answer: Its glass transition temperature is 45.90 °C.

Question: For `*c1ccc2oc(C3CCC(c4nc5cc(C(*)(C(F)(F)F)C(F)(F)F)ccc5o4)CC3)nc2c1` (repeat unit), which glass transition temperature is on record?
Answer: The glass transition temperature was 271.00 °C.

Question: Which glass transition temperature does the source give for `*O[Si](C=C)(C=C)O[Si](C)(C)c1ccc([Si](*)(C)C)cc1` (repeat unit) here?
Answer: Its glass transition temperature is -71.00 °C.

Question: With `*C(=O)c1ccc(Oc2ccc(C3(c4ccc(Oc5ccc(C(=O)c6ccc7c(c6)C(=O)N(c6ccc(Cc8ccc(N9C(=O)c%10ccc(*)cc%10C9=O)cc8)cc6)C7=O)cc5)cc4)OC(=O)c4ccccc43)cc2)cc1` (repeat unit) as the molecule, how does the glass transition temperature read?
Answer: The glass transition temperature was 268.00 °C.

Question: With `*CCN(CCCCCCOc1ccc(/N=N/c2ccccc2)cc1)CCOC(=O)Nc1ccc(Cc2ccc(NC(=O)O*)cc2)cc1` (repeat unit) as the molecule, how does the glass transition temperature read?
Answer: Its glass transition temperature is 44.00 °C.

Question: For `*Oc1cccc2ccc(Oc3ccc(NC(=O)c4ccc(Oc5ccc(C(C)(C)c6cccc(C(C)(C)c7ccc(Oc8ccc(C(=O)Nc9ccc(*)cc9)cc8)cc7)c6)cc5)cc4)cc3)cc12` (repeat unit), which glass transition temperature is on record?
Answer: Its glass transition temperature is 139.00 °C.

Question: For `*Oc1ccc(Sc2ccc(Oc3ccc(-c4ccc(-c5ccc(-c6ccc(*)c(C(F)(F)F)c6)cc5)cc4)cc3C(F)(F)F)cc2)cc1` (repeat unit), which glass transition temperature is on record?
Answer: The glass transition temperature was 176.50 °C.

Question: With `*CC(*)(C)C(=O)OCCCCCCCC/C=C/CCCCCCCC` (repeat unit) as the molecule, how does the glass transition temperature read?
Answer: The glass transition temperature was -40.00 °C.

Question: For `*Nc1ccc(NC(=O)CCCCC(*)=O)cc1` (repeat unit), which glass transition temperature is on record?
Answer: The glass transition temperature was 133.00 °C.

Question: With `*O[Si](C)(C)O[Si](*)(C)CCCCCCCCOc1ccc(C(=O)Oc2ccc(C#N)cc2C)cc1` (repeat unit) as the molecule, how does the glass transition temperature read?
Answer: The glass transition temperature was -15.00 °C.

Question: With `*OC(=O)C(Cc1ccccc1)NC(=O)CCCCCCC(=O)NC(Cc1ccccc1)C(=O)OC1COC2C(*)COC12` (repeat unit) as the molecule, how does the glass transition temperature read?
Answer: The glass transition temperature was 91.00 °C.

Question: With `*CCCCOCCCCOCCCCOC(=O)c1ccc(/N=C/c2cc(OCCC(C)CCCC(C)C)c(/C=N/c3ccc(C(=O)O*)cc3)cc2OCCC(C)CCCC(C)C)cc1` (repeat unit) as the molecule, how does the glass transition temperature read?
Answer: Its glass transition temperature is -4.80 °C.

Question: For `*CC(*)c1ccc(COCCCC)cc1` (repeat unit), which glass transition temperature is on record?
Answer: The glass transition temperature was 10.00 °C.

Question: With `*c1ccc(Sc2ccc(S(*)(=O)=O)cc2)cc1` (repeat unit) as the molecule, how does the glass transition temperature read?
Answer: The glass transition temperature was 215.00 °C.

Question: For `*c1ccc(OC(=O)c2cc(Cl)cc(C(=O)Oc3ccc(C4(*)OC(=O)c5ccccc54)cc3)c2)cc1` (repeat unit), which glass transition temperature is on record?
Answer: Its glass transition temperature is 313.00 °C.

Question: For `*CC(*)(C)C(=O)OCCCCCCCCCCOc1ccc(/N=N/c2ccccc2)cc1` (repeat unit), which glass transition temperature is on record?
Answer: The glass transition temperature was 56.00 °C.

Question: Which glass transition temperature does the source give for `*c1ccccc1CCc1ccc(N2C(=O)C(=O)N(c3ccc(C)c(N4C(=O)C(=O)N(*)C4=O)c3)C2=O)cc1` (repeat unit) here?
Answer: Its glass transition temperature is 255.00 °C.
